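Dose response: 5 concentrations. Exposure: 48 h. Format: 96-well plates. Endpoint: linear interpolation; highest concentration if not reached. At the GI50, growth is halved. TGI marks complete inhibition of growth.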
Columns and labels:
Experiment in all cases: NCI-60 cell line screen, 48 h
[1] = tested on: BT-549 breast
[2] = tested on: SF-268 CNS
[3] = tested on: T-47D breast
[4] = tested on: MOLT-4 leukemia
[5] = tested on: DU-145 prostate
[6] = tested on: HCT-15 colon
[7] = tested on: SF-295 CNS
[8] = tested on: CCRF-CEM leukemia
[9] = tested on: A498 renal
[10] = tested on: HT29 colon
[11] = tested on: 786-0 renal
[12] = tested on: LOX IMVI melanoma
[13] = tested on: HCT-116 colon
[14] = tested on: OVCAR-8 ovarian
[15] = tested on: KM12 colon
[16] = tested on: MALME-3M melanoma
[17] = tested on: ACHN renal
[18] = tested on: NCI/ADR-RES ovarian
[19] = tested on: MDA-MB-435
[20] = tested on: RPMI-8226 leukemia
[21] = tested on: SR leukemia
[22] = tested on: HL-60(TB) leukemia
[23] = tested on: HS 578T breast
[24] = tested on: OVCAR-4 ovarian
[25] = tested on: SN12C renal
[26] = tested on: RXF 393 renal
[27] = tested on: SK-OV-3 ovarian
[28] = tested on: SK-MEL-2 melanoma
[29] = tested on: NCI-H23 lung
[30] = tested on: NCI-H522 lung
[31] = tested on: IGROV1 ovarian
[32] = tested on: OVCAR-5 ovarian
[33] = tested on: OVCAR-3 ovarian
[34] = tested on: UACC-257 melanoma
[35] = tested on: SNB-75 CNS
[36] = tested on: SNB-19 CNS
[37] = tested on: NCI-H460 lung
[38] = tested on: U251 CNS
[39] = tested on: SK-MEL-28 melanoma
[40] = tested on: CAKI-1 renal
[41] = tested on: PC-3 prostate
[42] = tested on: UO-31 renal
[43] = tested on: A549 NSCLC
[44] = tested on: MCF7 breast
[45] = tested on: UACC-62 melanoma
[46] = tested on: HOP-92 NSCLC
[47] = tested on: HCC-2998 colon
[48] = tested on: SW-620 colon
[49] = tested on: K-562 leukemia
[50] = tested on: NCI-H226 lung
[51] = tested on: SK-MEL-5 melanoma
[52] = tested on: TK-10 renal
[53] = tested on: COLO 205 colon
[54] = tested on: HOP-62 NSCLC
[55] = tested on: EKVX NSCLC
[56] = tested on: M14 melanoma
[57] = tested on: MDA-MB-231 breast

`COc1cc(Nc2cc(C)nc(N3CCN(c4ccnc5cc(Cl)ccc45)CC3)n2)cc(OC)c1` gave a GI50 [1] of 0.498 µM, a TGI [1] of 6.61 µM and a GI50 [2] of 0.377 µM. For the same compound, the TGI [2] was over 100 µM, the GI50 [3] was 2.36 µM and the TGI [3] was over 100 µM. For the same compound, the GI50 [4] was 0.4 µM, the TGI [4] was over 40.9 µM and the GI50 [5] was 0.318 µM. For the same compound, the GI50 [6] was 0.0561 µM, the TGI [6] was over 100 µM and the GI50 [7] was 0.0496 µM. It also gave a TGI [7] of 0.439 µM, a GI50 [8] of 0.268 µM and a TGI [8] of over 100 µM. The GI50 [9] was 0.0842 µM, the TGI [9] was 0.658 µM and the GI50 [10] was 0.266 µM. For the same compound, the TGI [10] was 2.08 µM, the GI50 [11] was 0.153 µM and the TGI [11] was 5.82 µM. The GI50 [12] was 0.133 µM, the TGI [12] was 2.82 µM and the GI50 [13] was 0.103 µM. It also gave a TGI [13] of 5.45 µM, a GI50 [14] of 0.337 µM and a TGI [14] of over 79.1 µM. The GI50 [15] was 0.0323 µM, the TGI [15] was 4.73 µM and the GI50 [16] was 5.08 µM. For the same compound, the TGI [16] was over 100 µM, the GI50 [17] was 0.0727 µM and the TGI [17] was over 100 µM. The GI50 [18] was 0.155 µM, the TGI [18] was 1.24 µM and the GI50 [19] was 0.0306 µM. It also gave a TGI [19] of 0.105 µM, a GI50 [20] of 0.313 µM and a TGI [20] of 3.51 µM. For the same compound, the GI50 [21] was 0.169 µM, the TGI [21] was 3.3 µM and the GI50 [22] was 0.24 µM. The TGI [22] was 20.8 µM, the GI50 [23] was 0.176 µM and the TGI [23] was over 100 µM. For the same compound, the GI50 [24] was 0.128 µM, the TGI [24] was over 100 µM and the GI50 [25] was 0.309 µM. The TGI [25] was over 100 µM, the GI50 [26] was 0.0354 µM and the TGI [26] was 0.286 µM. For the same compound, the GI50 [27] was 0.253 µM, the TGI [27] was over 78.9 µM and the GI50 [28] was 0.186 µM. For the same compound, the TGI [28] was over 100 µM, the GI50 [29] was 0.302 µM and the TGI [29] was over 100 µM. The GI50 [30] was 0.0501 µM, the TGI [30] was 0.651 µM and the GI50 [31] was 0.267 µM. It also gave a TGI [31] of over 100 µM, a GI50 [32] of 0.487 µM and a TGI [32] of over 100 µM. It also gave a GI50 [33] of 0.0662 µM, a TGI [33] of 0.437 µM and a GI50 [34] of 0.907 µM. It also gave a TGI [34] of over 100 µM, a GI50 [35] of 0.142 µM and a TGI [35] of 1.06 µM. For the same compound, the GI50 [36] was 0.318 µM, the TGI [36] was over 100 µM and the GI50 [37] was 0.18 µM. The TGI [37] was over 32.3 µM, the GI50 [38] was 0.268 µM and the TGI [38] was over 100 µM. It also gave a GI50 [39] of 0.0993 µM, a TGI [39] of over 100 µM and a GI50 [40] of 0.198 µM. The TGI [40] was over 100 µM, the GI50 [41] was 0.245 µM and the TGI [41] was over 100 µM. It also gave a GI50 [42] of 0.139 µM, a TGI [42] of over 100 µM and a GI50 [43] of 0.227 µM. It also gave a TGI [43] of over 39.7 µM, a GI50 [44] of 0.0324 µM and a TGI [44] of over 100 µM. The GI50 [45] was 0.0955 µM, the TGI [45] was over 71.7 µM and the GI50 [46] was 0.0973 µM. It also gave a TGI [46] of 4.68 µM, a GI50 [47] of 0.222 µM and a TGI [47] of 4.22 µM. The GI50 [48] was 0.146 µM, the TGI [48] was over 100 µM and the GI50 [49] was 0.108 µM. The TGI [49] was over 61.9 µM, the GI50 [50] was 0.362 µM and the GI50 [51] was 0.0778 µM. The TGI [51] was 0.351 µM, the GI50 [52] was 0.538 µM and the TGI [52] was 41.3 µM. It also gave a GI50 [53] of 0.202 µM, a TGI [53] of 0.537 µM and a GI50 [54] of 0.194 µM. For the same compound, the TGI [54] was 14.3 µM.

In the case of `COc1ccc2c(c1)CC1Cc3cc(OC)c(OC)cc3CN1CC2` (stereo unspecified), the TGI [1] was over 100 µM, the TGI [2] was over 100 µM and the TGI [3] was over 100 µM. For the same compound, the TGI [55] was over 100 µM, the TGI [4] was over 100 µM and the TGI [5] was over 100 µM. It also gave a TGI [6] of over 100 µM, a TGI [7] of over 100 µM and a TGI [8] of 89 µM. The TGI [9] was over 100 µM, the TGI [10] was over 100 µM and the TGI [11] was over 100 µM. The TGI [12] was over 100 µM, the TGI [13] was over 100 µM and the TGI [14] was over 100 µM. For the same compound, the TGI [15] was over 100 µM, the TGI [16] was over 100 µM and the TGI [17] was over 100 µM. The TGI [18] was over 100 µM, the TGI [19] was over 100 µM and the TGI [20] was over 100 µM. It also gave a TGI [21] of 60.3 µM, a TGI [22] of 34.3 µM and a TGI [23] of over 100 µM. For the same compound, the TGI [56] was over 100 µM, the TGI [24] was over 100 µM and the TGI [26] was over 100 µM. For the same compound, the TGI [27] was over 100 µM, the TGI [28] was over 100 µM and the TGI [29] was over 100 µM. The TGI [30] was over 100 µM, the TGI [31] was over 100 µM and the TGI [32] was over 100 µM. It also gave a TGI [33] of over 100 µM, a TGI [34] of over 100 µM and a TGI [35] of over 100 µM. The TGI [36] was over 100 µM, the TGI [37] was over 100 µM and the TGI [38] was over 100 µM. For the same compound, the TGI [39] was over 100 µM, the TGI [40] was over 100 µM and the TGI [41] was over 100 µM. For the same compound, the TGI [42] was over 100 µM, the TGI [43] was over 100 µM and the TGI [45] was over 100 µM. The TGI [46] was 67.2 µM, the TGI [47] was over 100 µM and the TGI [57] was over 100 µM. It also gave a TGI [48] of over 100 µM, a TGI [49] of over 100 µM and a TGI [50] of over 100 µM. For the same compound, the TGI [51] was over 100 µM, the TGI [52] was over 100 µM and the TGI [53] was over 100 µM. The TGI [54] was over 100 µM.

— PubChem BioAssay (NCI)
